Data set [1] is described as follows: Isothermal titration calorimetry, binding to HS-fragments. The conditions noted are these: vs peptide 19–2.5 (Table 2). The procedure:
Isothermal titration calorimetry (ITC) experiments were performed as previously described. Briefly, the binding of peptide 19–2.5 to heparanase or HS-fragments was recorded by measuring the enthalpy change of the reaction at 37°C. For this, a total of 100 μg/ml heparanase (R&D Systems Europe Ltd., Abingdon, United Kingdom) and 200 μg/ml HS-fragments (H7640 Sigma-Aldrich, St. Louis, MO, USA) were dispersed into the calorimetric cell, and 2 mM peptide 19–2.5 was titrated to this dispersion stepwise in 3 μl portions. After exploring experiments, the concentration of HS was 100 μg/ml titrated with 1.5 μl of peptide 19–2.5 (2 mM) 20 times at 37°C.
Fig 5 Isothermal titration calorimetry (ITC). For the ITC experiments, 2 mM peptide 19–2.5 was titrated to this dispersion stepwise in 3 μl portions into (A) 200 μg/ml heparan sulfate-fragments (HS) and (B) 100 μg/ml heparanase (Hep). In each titration, the resulting heat signals P were recorded (peak downwards are exothermic, peaks upwards endothermic reactions) against time (min) and presented in the top parts of Fig 5A and 5B. The integrated enthalpy changes ΔH versus [peptide]:[HS-fragments] (A) and [peptide]:[heparanase] (B) concentration ratios of the single titrations are illustrated in the bottom parts of Fig 5A and 5B.

For data set [2] the following is noted: cited from earlier work. An excerpt: Sepsis is a common and life-threatening disease especially in medical and surgical intensive care patients with mortality rates up to 60% [1]. It is characterized by a systemic inflammatory response to infection triggered by both pathogen-associated molecular patterns (PAMPs) as well as endogenous danger-associated molecular patterns (DAMPs). Here, heparan sulfate and the enzyme heparanase play key roles. Heparan sulfates are linear polysaccharides composed of repeating disaccharide subunits, which are D-glucosamine and D-glucuronic acid in their unmodified form. They are attached ...

The target in the next data set is heparanase (UniProt Q9Y251). The experiment in a line: ITC; 2 mM peptide 19-2.5 titrated stepwise in 3 ul portions into 100 ug/ml heparanase in the calorimetric cell, 37 °C.
heparanase, sequence (Q9Y251 36-543): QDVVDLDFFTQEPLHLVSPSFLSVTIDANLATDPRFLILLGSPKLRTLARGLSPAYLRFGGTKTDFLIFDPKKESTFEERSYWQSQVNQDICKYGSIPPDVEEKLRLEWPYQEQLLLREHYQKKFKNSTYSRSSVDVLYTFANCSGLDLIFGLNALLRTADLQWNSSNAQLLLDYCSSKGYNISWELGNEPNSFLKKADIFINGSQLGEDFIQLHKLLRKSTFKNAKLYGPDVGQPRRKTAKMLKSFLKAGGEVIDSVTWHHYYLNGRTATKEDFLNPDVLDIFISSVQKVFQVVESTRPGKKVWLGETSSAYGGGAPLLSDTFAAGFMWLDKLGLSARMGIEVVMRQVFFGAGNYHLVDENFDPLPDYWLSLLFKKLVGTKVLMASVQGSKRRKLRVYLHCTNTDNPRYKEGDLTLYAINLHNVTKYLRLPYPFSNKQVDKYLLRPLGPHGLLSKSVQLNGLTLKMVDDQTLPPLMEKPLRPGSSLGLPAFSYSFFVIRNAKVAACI

On to “GCKKYRRFRWKFKGK [peptide 19–2.5gek, peptide variant with the hydrophobic C-terminal of the peptide, FWFWG, removed]”, for which the “binding constant to HS-fragments on removal of C-terminal FWFWG” value in data set [1] was “dramatically decreases”.
On to “LL-37: naturally occurring antimicrobial cathelicidin peptide LL-37”, for which the “neutralization of pro-inflammatory action of PAMPs and DAMPs” value in data set [2] was “neutralizes the pro-inflammatory action of PAMPs and DAMPs”. Besides, the toxicity result in data set [2] (limits therapeutic use) is on record as “intrinsic toxicity”.
With GCKKYRRFRWKFKGKFWFWG [synthetic antimicrobial peptide 19-2.5], the dH (at the beginning of the titration) with heparanase is -5.98 kcal/mol.

The values above are taken from PMC4658182, “The Synthetic Antimicrobial Peptide 19-2.5 Interacts with Heparanase and Heparan Sulfate in Murine and Human Sepsis” (PLoS ONE, 2015).
